Laboratory results reported in patent publication US9630977B2, “Cephalosporin derivatives and pharmaceutical compositions thereof” (Legochem Biosciences, Inc., priority 2011, dated 2017).
Values after ≈ are worked out from the molar mass of the structure shown.

Experiments:
19 clinical isolates = assay: In vitro antibacterial activity test, panel of 19 clinical isolates as a whole; format: cell-based; conditions: effect of a siderophore group, Table 1
Procedure: To evaluate antibacterial activity of each of the compounds of Examples 1 to 68, in vitro antibacterial activity test was performed.
The in vitro antibacterial activity was evaluated by measuring MIC90 (ug/mL) of each of the compounds of Examples 1 to 68, which is defined as the lowest concentration of an antibiotic that will inhibit the visible growth of 90% of microorganisms after incubation as compared with a control group to which the antibiotic is not treated. MIC90 values were measured by the broth microdilution method developed by the Clinical and Laboratory Standards Institute (CLSI) (see CLSI M7-A5, Methods for Dilution Antimicrobial Susceptibility Test for Bacteria that Grow Aerobically-Fifth Edition (2000): CLSI, Villanova, Pa.).
In vitro antibacterial activity was measured with respect to the following 19 clinical isolates: M. catarrhalis; P. aeruginosa (5 strains); K. pneumoniae (6 strains); A. baumannii (3 strains); E. coli (2 strains); A. calcoaceticus; and E. cloacae.
Test compounds each (the cephalosporin derivative compounds prepared in Examples 1 to 68) were dissolved in DMSO at the concentration of 10,240 ug/mL, were diluted by two fold with DMSO, and then were diluted by twenty fold with sterilized distilled water. The final concentration in the antibacterial activity test was in the range of […] to 128 ug/mL, and the final concentration of DMSO used as an adjuvant was 2.5% (V/V).

[1] = Pharmacokinetics study in rat, IV; format: in vivo, SD rat; conditions: Rat (10 mg/kg) single IV
Procedure: Test animals: 9 week old SD rat, weight 290˜310 g; 3 rats/sample time point
Lab conditions: Temperature of 21±2° C.; humidity of 50±20%
Administration method: Injecting test compound solution through tail vein (IV)
Test method: Blood samples were taken from jugular vein at a predetermined time period for 24 hours after administration, plasma was separated, and quantified by using LC-MS/MS.

[2] = tested on: A. calcoaceticus ATCC15473; assay: In vitro antibacterial activity test (broth microdilution); format: cell-based; conditions: Acinetobacter calcoaceticus; A. calcoaceticus ATCC15473; read-out: MIC90
Outline: (§1)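 Values: MIC90, ug/mL. Method: CLSI broth microdilution on clinical isolates, compounds at final 0.0626 to 128 ug/mL.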

K. pneumoniae β11 = assay: as above; format: cell-based; conditions: Klebsiella pneumoniae; K. pneumoniae β11; read-out: MIC90
Outline: as §1

E. coli β4 = assay: as above; format: cell-based; conditions: Escherichia coli, read-out: MIC90
Outline: as §1

K. pneumoniae 2011E = assay: as above; format: cell-based; conditions: Klebsiella pneumoniae, 2011E, K. pneumoniae 2011E; read-out: MIC90
Outline: as §1

K. pneumoniae β14 = assay: as above; format: cell-based; conditions: Klebsiella pneumoniae, read-out: MIC90
Outline: as §1

A. baumannii 46 = assay: as above; format: cell-based; conditions: Acinetobacter baumannii; A. baumannii 46; read-out: MIC90
Outline: as §1

K. pneumoniae β10 = assay: as above; format: cell-based; conditions: Klebsiella pneumoniae; K. pneumoniae β10; read-out: MIC90
Outline: as §1

P. aeruginosa 43 = assay: as above; format: cell-based; conditions: Pseudomonas aeruginosa; P. aeruginosa 43; read-out: MIC90
Outline: as §1

K. pneumoniae β9 = assay: as above; format: cell-based; conditions: Klebsiella pneumoniae, K. pneumoniae β9; read-out: MIC90
Outline: as §1

P. aeruginosa 40 = assay: as above; format: cell-based; conditions: Pseudomonas aeruginosa, 40, P. aeruginosa 40; read-out: MIC90
Outline: as §1

M. catarrhalis 2524 = assay: as above; format: cell-based; conditions: M. catarrhalis 2524
Outline: as §1

P. aeruginosa 6065Y = assay: as above; format: cell-based
Outline: as §1

P. aeruginosa 1912E = assay: as above; format: cell-based
Outline: as §1

K. pneumoniae β13 = assay: as above; format: cell-based; conditions: K. pneumoniae β13
Outline: as §1

A. baumannii 52 = assay: as above; format: cell-based; conditions: Acinetobacter baumannii; A. baumannii 52; read-out: MIC90
Outline: as §1

E. cloacae β19 = assay: as above; format: cell-based
Outline: as §1

A. baumannii 49 = assay: as above; format: cell-based; conditions: Acinetobacter baumannii; A. baumannii 49; read-out: MIC90
Outline: as §1

P. aeruginosa 37 = assay: as above; format: cell-based; conditions: Pseudomonas aeruginosa, 37, P. aeruginosa 37; read-out: MIC90
Outline: as §1

E. coli AG100 = assay: as above; format: cell-based; conditions: Escherichia coli, AG100, E. coli AG100; read-out: MIC90
Outline: as §1

[3] = tested on: P. aeruginosa (16 clinical isolates); assay: Antibacterial activity on representative drug-resistance bacteria: number of clinical isolates per MIC value; format: cell-based; conditions: P. aeruginosa (N = 16)
[4] = tested on: A. baumannii (6 clinical isolates); assay: as above; format: cell-based; conditions: A. baumanni (N = 6)
[5] = tested on: K. pneumoniae (38 clinical isolates); assay: as above; format: cell-based; conditions: K. pneumomiae (N = 38)

Question: Which “antibacterial activity (in words)” value (19 clinical isolates) does the source give for `CC(C)(O/N=C(\C(=O)N[C@@H]1C(=O)N2C(C(=O)[O-])=C(/C=C/C[n+]3cnc(N)c(NCCNC(=O)c4cc(=O)c(O)cn4O)c3)CSC12)c1csc(N)n1)C(=O)O` (stereo partly drawn) [Compound 8] here?
Answer: significantly improved

Question: What about the AUCnorm [1] of the same compound?
Answer: 5.46 kg·h/L

Question: What about the “Cmax,norm” value [1] of the same compound?
Answer: 19.61 kg/L

Question: What about the AUC ([1]; SD, plasma) of the same compound?
Answer: 54600 ng·h/mL

Question: And the Cmax ([1]; SD, plasma)?
Answer: 196 µg/mL

Question: What about the Tmax ([1]; SD, plasma) of the same compound?
Answer: 1.2 min

Question: And the clearance ([1]; SD, plasma)?
Answer: 3 mL/min/kg

Question: And the half-life ([1]; SD, plasma)?
Answer: 52.2 min

Question: What about the Vd ([1]; SD, plasma, read-out: Vss) of the same compound?
Answer: 0.09 L/kg

Question: And the MIC90 [2]?
Answer: 2 µg/mL (≈ 2.5 µM)

Question: What about the MIC90 (K. pneumoniae β11) of the same compound?
Answer: 32 µg/mL (≈ 40 µM)

Question: And the MIC90 (E. coli β4)?
Answer: 0.5 µg/mL (≈ 0.625 µM)

Question: What about the MIC90 (K. pneumoniae 2011E) of the same compound?
Answer: 1 µg/mL (≈ 1.25 µM)

Question: What about the MIC90 (K. pneumoniae β14) of the same compound?
Answer: 8 µg/mL (≈ 10 µM)

Question: And the MIC90 (A. baumannii 46)?
Answer: 8 µg/mL (≈ 10 µM)

Question: And the MIC90 (K. pneumoniae β10)?
Answer: < 0.0625 µg/mL

Question: And the MIC90 (P. aeruginosa 43)?
Answer: 1 µg/mL (≈ 1.25 µM)

Question: What about the MIC90 (K. pneumoniae β9) of the same compound?
Answer: 0.5 µg/mL (≈ 0.625 µM)

Question: And the MIC90 (P. aeruginosa 40)?
Answer: 0.5 µg/mL (≈ 0.625 µM)

Question: And the MIC90 (M. catarrhalis 2524)?
Answer: 0.5 µg/mL (≈ 0.625 µM)

Question: And the MIC90 (P. aeruginosa 6065Y)?
Answer: 4 µg/mL (≈ 5 µM)

Question: What about the MIC90 (P. aeruginosa 1912E) of the same compound?
Answer: 1 µg/mL (≈ 1.25 µM)

Question: And the MIC90 (K. pneumoniae β13)?
Answer: 0.25 µg/mL (≈ 0.313 µM)

Question: And the MIC90 (A. baumannii 52)?
Answer: > 128 µg/mL

Question: And the MIC90 (E. cloacae β19)?
Answer: 32 µg/mL (≈ 40 µM)

Question: What about the MIC90 (A. baumannii 49) of the same compound?
Answer: > 128 µg/mL

Question: What about the MIC90 (P. aeruginosa 37) of the same compound?
Answer: 1 µg/mL (≈ 1.25 µM)

Question: What about the MIC90 (E. coli AG100) of the same compound?
Answer: 0.0625 µg/mL (≈ 0.0781 µM)

Question: And the “number of clinical isolates that showed the respective MIC value” (from here on “number”) ([3]; MIC 0.125 ug/mL)?
Answer: 2

Question: And the “number” value ([3]; MIC 0.25 ug/mL)?
Answer: 1

Question: And the “number” value ([3]; MIC 0.5 ug/mL)?
Answer: 2

Question: And the “number” value ([3]; MIC 1 ug/mL)?
Answer: 2

Question: What about the “number” value ([3]; MIC 2 ug/mL) of the same compound?
Answer: 2

Question: What about the “number” value ([3]; MIC 4 ug/mL) of the same compound?
Answer: 3

Question: What about the “number” value ([3]; MIC 8 ug/mL) of the same compound?
Answer: 1

Question: What about the “number” value ([3]; MIC >16 ug/mL) of the same compound?
Answer: 3

Question: What about the “number” value ([4]; MIC 0.5 ug/mL) of the same compound?
Answer: 1

Question: What about the “number” value ([4]; MIC >16 ug/mL) of the same compound?
Answer: 5

Question: And the “number” value ([5]; MIC 0.25 ug/mL)?
Answer: 1

Question: What about the “number” value ([5]; MIC 8 ug/mL) of the same compound?
Answer: 1

Question: What about the “number” value ([5]; MIC <0.0625 ug/mL) of the same compound?
Answer: 1

Question: And the “number” value ([5]; MIC >16 ug/mL)?
Answer: 35
